Data reported in ChEMBL document CHEMBL1148084, “Novel naphthoquinones from Conospermum incurvum” (J Nat Prod, 1994).
The source made the active and inactive calls. No cut-off for these calls is given here.

The compounds below were run on Human immunodeficiency virus 1 (assay: Antiviral activity against HIV1 in human cells by XTT assay).
Type: functional, organism-based

SMILES | Activity
CC(C)=CCC[C@]1(C)C=Cc2c(ccc3c2C(=O)C(O)=C(C)C3=O)O1 | inactive
COC1=C(C)C(=O)c2ccc3c(c2C1=O)C=C[C@@](C)(CCCC(C)(C)O)O3 | inactive
COC1=C(C)C(=O)c2ccc3c(c2C1=O)C=C[C@@](C)(CCC=C(C)C)O3 | inactive
CC1=C(O)C(=O)c2c(ccc3c2C=C[C@@](C)(CCCC(C)(C)O)O3)C1=O | inactive
CC(C)=CCC/C(C)=C/Cc1c(O)ccc2c1C(=O)C(O)=C(C)C2=O | inactive
COc1cc2c(cc1O)C(=O)C(C)=C(C)C2=O | inactive
